The source of these data is ChEMBL document CHEMBL1122455, “(Mercaptopropanoyl)indoline-2-carboxylic acids and related compounds as potent angiotensin converting enzyme inhibitors and antihypertensive agents” (J Med Chem, 1983).

By pIC50 is commonly meant the negative decadic logarithm of the IC50, by convention in mol/L.

Structures are written as SMILES. pIC50: −log10 of the molar value.

Assay [1] addresses T1, Angiotensin-converting enzyme (Rattus norvegicus, UniProt P47820).
T1 sequence (P47820 whole entry): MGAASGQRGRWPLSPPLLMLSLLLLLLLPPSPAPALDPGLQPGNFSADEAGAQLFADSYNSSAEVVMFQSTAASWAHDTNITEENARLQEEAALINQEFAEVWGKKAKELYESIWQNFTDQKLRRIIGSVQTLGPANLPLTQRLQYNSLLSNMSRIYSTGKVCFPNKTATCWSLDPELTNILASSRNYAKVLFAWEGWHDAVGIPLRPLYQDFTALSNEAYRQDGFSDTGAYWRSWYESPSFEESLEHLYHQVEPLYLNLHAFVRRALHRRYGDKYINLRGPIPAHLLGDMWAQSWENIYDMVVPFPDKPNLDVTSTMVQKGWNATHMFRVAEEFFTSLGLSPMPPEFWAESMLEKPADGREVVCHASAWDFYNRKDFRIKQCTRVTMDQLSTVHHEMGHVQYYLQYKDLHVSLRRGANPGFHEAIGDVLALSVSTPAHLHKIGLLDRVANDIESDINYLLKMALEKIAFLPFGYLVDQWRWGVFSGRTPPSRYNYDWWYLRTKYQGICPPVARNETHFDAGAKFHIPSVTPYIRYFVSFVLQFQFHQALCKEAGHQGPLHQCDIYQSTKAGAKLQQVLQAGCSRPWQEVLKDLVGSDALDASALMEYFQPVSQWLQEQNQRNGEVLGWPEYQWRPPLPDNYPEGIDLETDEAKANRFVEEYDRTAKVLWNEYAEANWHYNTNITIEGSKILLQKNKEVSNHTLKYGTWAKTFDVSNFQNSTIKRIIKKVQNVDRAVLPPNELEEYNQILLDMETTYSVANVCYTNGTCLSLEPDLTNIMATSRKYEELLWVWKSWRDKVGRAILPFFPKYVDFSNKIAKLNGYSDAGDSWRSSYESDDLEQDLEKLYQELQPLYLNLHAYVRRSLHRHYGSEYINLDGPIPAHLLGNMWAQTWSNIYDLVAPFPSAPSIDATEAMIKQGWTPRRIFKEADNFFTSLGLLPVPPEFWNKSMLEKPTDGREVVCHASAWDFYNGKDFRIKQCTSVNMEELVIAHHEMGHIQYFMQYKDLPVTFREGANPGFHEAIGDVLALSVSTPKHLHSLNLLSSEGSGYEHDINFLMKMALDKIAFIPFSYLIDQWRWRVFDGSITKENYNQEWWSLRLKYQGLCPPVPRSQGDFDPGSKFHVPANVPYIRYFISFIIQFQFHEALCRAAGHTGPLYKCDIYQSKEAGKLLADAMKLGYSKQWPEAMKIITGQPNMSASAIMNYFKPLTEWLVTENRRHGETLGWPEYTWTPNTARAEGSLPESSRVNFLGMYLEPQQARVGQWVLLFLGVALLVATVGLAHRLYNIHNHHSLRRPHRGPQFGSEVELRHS
Description: In vitro inhibitory activity against Angiotensin I converting enzyme.

Assay [2] has as its system Rattus norvegicus. Description: Dose required to lower blood pressure of SHR by 25 mmHg at 4-h post dose p.o. The note with it: po. In kind it is functional.
Assay [3] relates to Rattus norvegicus. Nature of the assay: Dose required to inhibit 50% of the angiotensin I induced vasopressor response p.o. To be noted: po, read-out: ID50 (the source's name). In kind it is functional.

Take `C[C@H](CSC(=O)c1ccccc1)C(=O)N1c2ccccc2C[C@H]1C(=O)O` [listing 1 of 2 here]: in assay [1], the pIC50 was 6.49. The compound `C1CCC(NC2CCCCC2)CC1.COc1ccc2c(c1)C[C@@H](C(=O)O)N2C(=O)[C@H](C)CSC(=O)c1ccccc1` yielded an ED25 in assay [2] of 20 mg/kg. In assay [1], this compound gave a negative-log IC50 (pIC50) of 7.38. The compound `C[C@@H](CSC(=O)c1ccccc1)C(=O)N1c2ccccc2C[C@H]1C(=O)O` gave a pIC50 in assay [1] of 6.42. Take `C[C@H](CSC[C@@H](C)C(=O)N1c2ccccc2C[C@H]1C(=O)O)C(=O)N1c2ccccc2C[C@H]1C(=O)O`: in assay [2], the ED25 turned out to be 24 mg/kg. The pIC50 in assay [1] was 5.89. In turn, `C[C@@H](CSC(=O)c1ccccc1)C(=O)N1c2ccccc2C[C@@H]1C(=O)O` [listing 1 of 2 here] gave a pIC50 in assay [1] of less than 4.00. Still for that read-out and setting: in the case of `C[C@@H]1CSC(=O)[C@H]2Cc3ccccc3N2C1=O` it was 4.70; in that of `C=C(C)C(=O)N1c2ccccc2CC1C(=O)O` (stereo not drawn), less than 3.00; in that of `C=CC(=O)N1c2ccccc2CC1C(=O)O` (stereo not drawn), less than 3.00. On the same count and under the same terms, in the case of `C[C@@H](CSC(=O)c1ccccc1)C(=O)N1c2ccccc2C[C@@H]1C(=O)O` [listing 2 of 2 here] it was less than 4.00; in that of `C=C(C)C(=O)N1c2ccccc2C[C@@H]1C(=O)O`, less than 3.00; in that of `C=C(C)C(=O)N1c2ccccc2C[C@H]1C(=O)O`, less than 4.00. In assay [2], `C[C@H](CSC(=O)c1ccccc1)C(=O)N1c2ccccc2C[C@H]1C(=O)O` [listing 2 of 2 here] displayed an ED25 of 1.03 mg/kg. The ED50 in assay [3] came to 2 mg/kg. Moreover, in assay [1], the negative logarithm of the IC50 (pIC50) was 7.42. With `COc1ccc2c(c1)CC(C(=O)O)N2C(=O)C(C)CSC(=O)c1ccccc1` (stereo not drawn) [listing 1 of 2 here], in assay [1], the negative logarithm of the IC50 (pIC50) is 7.03.

The compound `CC(=O)SCC(C)C(=O)N1c2ccccc2CC1C(=O)O` (stereo in doubt; form 2) registered an ED25 in assay [2] of 13 mg/kg. Further, the pIC50 in assay [1] is 7.96. Take `CC(CSC(=O)c1ccccc1)C(=O)N1c2ccccc2CC1C(=O)O` (stereo in doubt; form 2): the negative-log IC50 (pIC50) in assay [1] is 7.11. Still for that read-out and setting: in the case of `C[C@@H](CSC(=O)c1ccccc1)C(=O)N1c2ccccc2C[C@H]1C(=O)O` (racemic) it was 5.46; in that of `COc1ccc2c(c1)CC(C(=O)O)N2C(=O)C(C)CSC(=O)c1ccccc1` (stereo not drawn) [listing 2 of 2 here], 7.01.

In turn, `CC(=O)SCC(C)C(=O)N1c2ccccc2CC1C(=O)O` (stereo in doubt; form 1) showed a pIC50 in assay [1] of 4.82.

Turning to `O=C(SCCC(=O)N1c2ccccc2CC1C(=O)O)c1ccccc1` (stereo not drawn), the ED25 in assay [2] stood at 12.5 mg/kg. Moreover, in assay [3], the ED50 was determined as 1.95 mg/kg. In assay [1], the pIC50 is 7.23. `CCc1ccc2c(c1)CC(C(=O)O)N2C(=O)C(C)CSC(=O)c1ccccc1` (stereo not drawn) gave an ED25 in assay [2] of more than 100 mg/kg. Further, in assay [1], the pIC50 was 7.52. As for `C[C@@H]1CSC(=O)[C@@H]2Cc3ccccc3N2C1=O`, the ED25 in assay [2] is 2 mg/kg. In assay [1], this compound gave a pIC50 of 7.85.

The compound `C=C(C)C(=O)N1c2ccc(OC)cc2CC1C(=O)O` (stereo not drawn) gave a pIC50 in assay [1] of less than 3.00. `CC(CSC(=O)c1ccccc1)C(=O)N1c2ccccc2CC1C(=O)O` (stereo in doubt; form 1) gave a pIC50 in assay [1] of 6.39. `C[C@@H](CSC(=O)c1ccccc1)C(=O)N1c2ccccc2C[C@@H]1C(=O)O` (racemic) returned an ED25 in assay [2] of 100 mg/kg. This compound showed a pIC50 in assay [1] of 5.92. `C1CCC(NC2CCCCC2)CC1.C[C@@H](CSC(=O)c1ccccc1)C(=O)N1c2ccccc2C[C@H]1C(=O)O`: the ED25 in assay [2] worked out at 39 mg/kg. Moreover, in assay [1], the pIC50 is 6.27. `C[C@H](CS)C(=O)N1CCC[C@H]1C(=O)O` [CAPTOPRIL]: the ED25 in assay [2] stood at 17.8 mg/kg. Besides, the ED50 in assay [3] amounted to 0.57 mg/kg.
